What all share (test): NCI anticancer screen, dose series, 48 h
Assay [1] has as its system 786-0.
Assay [2] relates to CAKI-1.
The test system of assay [3] is HCC 2998.
In assay [4] the test system is HCT-15.
Assay [5] relates to IGROV-1.
The subject of assay [6] is K562.
The test system of assay [7] is MOLT-4.
Assay [8] relates to NCI-H226.
In assay [9] the test system is NCI-H23.
Assay [10] concerns NCI-H460.
Assay [11] concerns NCI-H522.
For assay [12], the system named is OVCAR-3.
The test system of assay [13] is OVCAR-5.
Assay [14] concerns OVCAR-8.
Assay [15] concerns SF-295.
For assay [16], the system named is SNB-19.
Assay [17] has as its system SNB-75.
Assay [18] deals with SR.
In assay [19] the test system is TK-10.
In assay [20] the test system is U-251.

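Grown in 96-well plates, cells were treated for 48 hours with each compound at five concentrations. Insufficient inhibition: endpoint recorded as highest concentration tested. Abbreviation: GI50, concentration required for 50% inhibition of growth.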 Calls of active or inactive are those of the source. No stated cut-off is given here; in the data, active = GI50 up to about 1.1 µM and inactive = higher.

On to `CCCCN(CCCC)C(=O)C(=O)CC(=O)/C=C/c1ccccc1`, for which the GI50 in [1] is > 100 µM (inactive); in assay [2], > 100 µM (inactive); in [3], > 100 µM (inactive); in assay [4] it was > 100 µM; in assay [5] it was > 100 µM (inactive); in [6] it was > 100 µM (inactive). Further, the GI50 in assay [7], in assay [8], in [9], in assay [10], in assay [11] and in assay [12] was > 100 µM (inactive) each time. The GI50 in assay [13], in assay [14], in assay [15], in assay [16], in assay [17] and in [18] was > 100 µM (inactive) in each case. Also, the GI50 in assay [19] and in [20] was > 100 µM (inactive) in each case.

In the case of `[N-]=[N+]=NC(c1cn(C2CC(O)C(CO)O2)c(=O)[nH]c1=O)C(Br)I` (stereo not given), the GI50 in assay [1] is > 100 µM (inactive); in assay [2], > 100 µM (inactive); in assay [3], > 100 µM (inactive); in assay [4], > 100 µM; in assay [5] it was > 100 µM (inactive); in assay [6], > 100 µM (inactive). In addition, the GI50 in assay [7], in assay [8], in assay [9], in assay [10], in assay [11] and in [12] was > 100 µM (inactive) in each case. Also, the GI50 in [13], in [14], in assay [15], in [16], in assay [17] and in assay [18] was > 100 µM (inactive) each time. In addition, the GI50 in [19] and in assay [20] was > 100 µM (inactive) throughout.

The values above are taken from ChEMBL document CHEMBL1201862, “PubChem BioAssay data set” (2004).
